This note sets out measurements from BindingDB's records for doi:10.7270/Q2CJ8BXT (Burnham Center For Chemical Genomics, 2010).

SMILES strings stand for the structures.

The target in this test is T1, Type-1 angiotensin II receptor (Homo sapiens, UniProt P30556).
T1 sequence (P30556 whole entry): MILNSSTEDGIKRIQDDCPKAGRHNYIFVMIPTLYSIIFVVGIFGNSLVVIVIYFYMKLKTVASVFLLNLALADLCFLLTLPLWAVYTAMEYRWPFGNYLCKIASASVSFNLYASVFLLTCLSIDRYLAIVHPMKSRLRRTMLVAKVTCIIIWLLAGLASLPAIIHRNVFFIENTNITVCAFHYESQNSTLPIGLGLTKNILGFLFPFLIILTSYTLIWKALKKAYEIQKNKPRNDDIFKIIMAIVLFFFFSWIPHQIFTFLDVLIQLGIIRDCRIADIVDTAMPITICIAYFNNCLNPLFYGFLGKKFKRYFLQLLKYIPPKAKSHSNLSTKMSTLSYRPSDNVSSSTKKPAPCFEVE
Kind of test: antagonism of angiotensin II type 1 receptor – cell-based, uHTS hits, selectivity assay for APJ receptor antagonist project, dose response (AID 463214).
By IC50 is commonly meant the point on the concentration scale where inhibition reaches its midpoint. Turning to `COc1ccc2c(c1)C(O)C(=O)[C@H](c1ccc(OC)c(Br)c1)O2` (some centres not stated), the IC50 was 34.6 µM.

For `Cc1ncc(C=O)c(CNNc2ccc(C(F)(F)F)cn2)c1O`, inhibition was half-maximal at 28.7 µM (IC50).

Take `CCOC(=O)C1C(C)=NC2=C(C(=O)CC(c3cccs3)C2)C1c1cccs1` (configuration not stated) [2-Methyl-5-oxo-4,7-di-thiophen-2-yl-1,4,5,6,7,8-hexahydro-quinoline-3-carboxylic acid ethyl ester]: the IC50 was 36 µM.

`Cc1[nH]n(C(N)=S)c(=O)c1N=Nc1ccc([N+](=O)[O-])cc1` [3-Methyl-4-(4-nitro-phenylazo)-5-oxo-4,5-dihydro-pyrazole-1-carbothioic acid amide] came in with a concentration for half-maximal inhibition (IC50) of 35.3 µM.

As for `COC(=O)c1[nH]nc(C(O)c2ccc(Cl)cc2)c1-c1ccc(OC)cc1` (configuration not stated) [MLS000702189], the 50% inhibitory concentration (IC50) is 28.4 µM.

`O=C1C=CC([N+](=O)[O-])=CC1CN=Nc1ccc(Cl)nn1` (configuration not stated) [SMR000184399] returned an IC50 of 3.63 µM.

The compound `CCOC(=O)c1[nH]nc(C(O)c2ccc(Cl)cc2)c1-c1ccccc1` (configuration not stated) [SMR000271792] yielded an IC50 of 39.9 µM.
